The text below walks through data of patent US7629385B2, “Sphingolipid-derived pharmaceutical compositions” (priority 2004, dated 2009).

SMILES strings stand for the structures.

One may read the inhibition as the share of the control response that was lost under treatment.

One experiment relates to Raft liposomes. Put plainly: Disrafter-Liposome Raftophile Assay (D-LRA). Particulars: test compound 100 μM.
Another experiment has as its system PR8 virus. Put plainly: microbe, parasite or virus in culture. It is filed as cell-based, influenza virus.
The subject of the next experiment is RBL-2H3 cells. In words: Degranulation assay (β-hexosaminidase release). It is filed as cell-based, rat.
Another experiment deals with HIV-1 strain NL4-3. In words: HIV assay: infection of HeLa TZM cells. It counts as cell-based. Particulars: Human immunodeficiency virus 1, NL43, vs solvent.
For experiment [1], the system named is vesicular stomatitis virus (VSV). It is filed as cell-based. Particulars: HeLa cells.
A further experiment has as its system Influenza virus. In words: Virus budding assay (influenza assay). It is filed as cell-based. Conditions: MDCK cells.
[2] abbreviates: unidentified influenza virus, PR8, MDCK, read-out: inhibition of PR8 virus replication.
Setting [3] is: Rattus norvegicus, RBL-2H3, 25 μM, vs solvent vehicle.

Protocol for Raft liposomes: The raftophilicity of certain fluorescent indicators varies with the raft content of liposomes which, in turn, is determined by their lipid composition and the presence of raft modulators.
The D-LRA assay detects two extremes of raft modulation, disrafting and raft augmentation. % disrafting below 0 results from an actual increase in partition of the indicator, caused by an increased raft content of the liposomes. […] Significance can be ascribed to values above 25% (disrafting) and below −25% (disrafters by “augmentation”).
Liposomes (defined below) with a raft content of about 50% are incubated with potential disrafters. The change in raft content is then determined with an indicator (standard raftophile).
Raft liposomes: (35% cholesterol, 10.5% shingomyelin (SM), 3.5% GM1, 25.5% phosphatidylethanolamine (PE) and 25.5% phosphatidylcholine (PC))
Non-raft liposomes: N liposomes (50% PE, PC)
Liposomes are prepared by spreading lipids dissolved in tert. butanol on a glass surface at 50° C. in a rotary evaporator rinsed with nitrogen. After 6 h desiccation the lipids are taken up in 40 mM octyl-β-D-glucoside (OG) to a concentration of 1 mg/ml and dialysed for 24 h against 2 changes of 5 I PBS with 25 g Biobeads (Amberlite XAD-2) at 22° C.
Indicators are fluorescent compounds which preferentially partition into rafts. These are selected to represent different structural classes, and different excitation/emission wavelengths. This is important when raft modulators are tested which interfere with indicator fluorescence.
Perylene is a raftophilic compound which embeds completely into membranes.
GS-96 is a raftophilic adduct of the general structure cholesterol-linker-rhodamine-peptide (only the cholesterol is membrane-inserted).
N and R Liposomes were diluted into PBS to a final lipid concentration of 200 μg/ml and 100 μl aliquots preincubated 30 min 37° C. on a thermomixer (1000 rpm).
1 μl of DMSO (solvent controls) and the test compound stock solutions (all 10 mM in DMSO, except where noted) were added and incubated 2 h as above.
1 μl indicator in DMSO was then added (final indicator concentrations GS-96 0.2 μM, perylene 2 μM) and incubation continued for 1 h as above
Incubation mixes were centrifuged 20 min in the TLA-100 rotor of the Beckman Optima centrifuge at 400 000 g (37° C.).

Regarding `CCCCCCCCCCCCC/C=C/[C@@H](OC)[C@H](CO)NC(=O)CCCCC` [Compound 10k], the “Disrafting Activity [%]” value in the experiment on Raft liposomes (perylene as marker) came to 98.6%. Besides, the inhibition at 20 µM in the experiment on PR8 virus (setting [2]) was determined as 59.3%.
In the case of `CCCCCCCCCCCCC/C=C/[C@@H](O)[C@H](CO)NC(=O)COC` [Compound 10u], the “Disrafting Activity [%]” value with Raft liposomes (perylene as marker) worked out at 97.0%. Also, the inhibition at 20 µM in the experiment with PR8 virus (setting [2]) stood at 70.3%. The inhibition at 25 µM in the experiment with RBL-2H3 cells (setting [3]) stood at 63%.
As for `CCCCCCCCCCCCC/C=C/[C@@H](O)[C@H](CO)NC(=O)/C=C(\C)CC/C=C(\C)CCC=C(C)C` [Compound 10p], in the experiment with Raft liposomes (GS-96 as marker), the “Disrafting Activity [%]” value was 58.9%. Besides, the inhibition at 100 µM in the experiment on PR8 virus (setting [2]) was found to be 39.2%.
With `CCCCCCCCCCCCC/C=C/[C@@H](O)[C@H](CO)NC(=O)[C@H]1CC[C@H](C(C)(C)C)CC1` [Compound 10e, N-(trans-4-tert-butylcyclohexylcarbonyl)-D-erythro-sphingosine], the inhibition at 10 µM with PR8 virus (setting [2]) amounted to 21%.
Take `CCCCCCCCCCCCC/C=C/[C@@H](OC)[C@H](CO)NC(=O)COCCOCCOCCOCCOC` [Compound 10v]: the inhibition at 20 µM in the experiment on HIV-1 strain NL4-3 stood at 45%; in the experiment with PR8 virus (setting [2]) it was 87.4%. Besides, the “Disrafting Activity [%]” value with Raft liposomes (perylene as marker) is 96.1%. For the same compound, in the experiment on PR8 virus (influenza), the “inhibition of viral reproduction” value is recorded as “very effective inhibition of the viral reproduction”. Further, in the experiment with RBL-2H3 cells (Rattus norvegicus, RBL-2H3, 12.5 μM, vs solvent vehicle), at 12.5 µM the inhibition was 74%.
For `CCCCCCCCCCCCC/C=C/[C@@H](O)[C@H](CO)NC(=O)COCCOC` [Compound 10a], the “Disrafting Activity [%]” value in the experiment on Raft liposomes (perylene as marker) turned out to be 99.2%. The “effect on viral infection in the VSV counterscreen” value in experiment [1] is listed as “no inhibitory effect on viral infection at all”.
For the compound `CCCCCCCCCCCCC/C=C/[C@@H](OC)[C@H](CO)NC(=O)/C=C(\C)CC/C=C(\C)CCC=C(C)C` [Compound 10q], in the experiment on PR8 virus (setting [2]), the inhibition at 100 µM amounted to 61.6%.
In the experiment with RBL-2H3 cells (setting [3]), `CCCCCCCCCCCCC/C=C/[C@@H](OC)[C@@H](N)CO` [Compound 10l, 3-Methylated D-erythro-sphingosine] registered an inhibition at 25 µM of 84%.
In the experiment on HIV-1 strain NL4-3, `CCCCCCCCCCCCC/C=C/[C@@H](O)[C@H](CO)NC(=O)CCOCCOCCOCCOCCN` [Compound 10w] registered an inhibition at 20 µM of 52%. In the experiment with Raft liposomes (perylene as marker), the “Disrafting Activity [%]” value was 53.1%. Moreover, the inhibition at 25 µM in the experiment on PR8 virus (setting [2]) came out at 50.3%. For the same compound, the inhibition at 6.25 µM with RBL-2H3 cells (Rattus norvegicus, RBL-2H3, 6.25 μM, vs solvent vehicle) stood at 69%.
With `CCCCCCCCCCCCC/C=C/[C@H](O)[C@H](CO)NCCCCCCCCCCCCCCCC` [Compound 10o], the “Disrafting Activity [%]” value in the experiment on Raft liposomes (perylene as marker) came out at 91.0%. Besides, the inhibition at 100 µM with PR8 virus (setting [2]) stood at 40.8%.
As for `CCCCCCCCCCCCCC=CC(O)C(CO)NC(=O)COCCOCCOCCOCCOC` [Compound 10g, N-(3,6,9,12,15-Pentoxahexadecanoyl)-D-erythro-sphingosine], in the experiment with Raft liposomes (perylene as marker), the “Disrafting Activity [%]” value is reported as 89.3%. Besides, the “inhibition of PR8 virus replication” value in the experiment on PR8 virus (20 μM, MDCK cells, vs solvent vehicle) stood at 70%. The “activity in the mast cell degranulation assay (words)” value in the experiment with RBL-2H3 cells is reported as “strongly inhibitory”. The “inhibition of the release of β-hexosaminidase” value in the experiment on RBL-2H3 cells (25 μM, vs solvent vehicle) amounted to 65%.
On to `CCCCCCCCCCCCC/C=C/[C@@H](O)[C@H](CO)NCCCCCCCCCCCCCCCC` [Compound 10n], for which the “Disrafting Activity [%]” value in the experiment with Raft liposomes (perylene as marker) stood at 94.8%. Further, in the experiment with PR8 virus (setting [2]), the inhibition at 100 µM was 34.7%.
Regarding `CCCCCCCCCCCCC/C=C/[C@@H](O)[C@H](CO)NC(=O)COCCOC` [Compound 10h, N-(3,6-Dioxaheptanoyl)-D-erythro-sphingosine], the “Disrafting Activity [%]” value with Raft liposomes (perylene as marker) was 72.2%. Also, in the experiment on PR8 virus (setting [2]), the inhibition at 20 µM is 75%. Besides, in the experiment on Influenza virus, the “result in the virus budding assay” value is “particularly good results”. The compound also returned an inhibition at 25 µM in the experiment with RBL-2H3 cells (setting [3]) of 71%.
